Laboratory results published in patent US9951089B2, “Methods of treating a fatty acid amide hydrolase-mediated condition” (INFINITY PHARMACEUTICALS, INC., priority 2010, dated 2018).
Values belong to the compound of their own block, whether it stands above or below them.

What was measured:
[1] = Material B/Form A relative humidity stressing (conversion study); assay type: physicochemical; conditions: approximately 75% R.H. and 41° C.
[2] = Solubility plot in 2-MeTHF:n-heptane; assay type: physicochemical; conditions: 2-MeTHF:n-heptane solvent mixture, organic solvent or mixture; mixture of 2-MeTHF:n-heptane, at least a 2:1 ratio
From the text: In order to further simplify the reaction workup transition, water-miscible THF was replaced with water immiscible 2-MeTHF as the reaction co-solvent with n-heptane, thus eliminating the need for MTBE in the workup. […] This afforded a relatively wide solubility range for both the reaction and the workup while still keeping the solvent volumes at reasonable levels for the telescoped steps.

[3] = Solubility of drug product in water; assay type: physicochemical; conditions: crystalline solid
From the text: (§1) In the clinic, protocol-specified portions of drug product are suspended in a vehicle consisting of commercially available medium viscosity USP carboxymethylcellulose sodium (CMC) in Sterile Water for Injection (SWFI). CMC is a chemically stable compound that is commonly used in oral pharmaceutical formulations and appears on the FDA list of substances that are Generally Recognized As Safe (GRAS).

[4] = Compatibility study: stability of drug product suspended in CMC vehicle; assay type: physicochemical; conditions: suspension in carboxymethylcellulose sodium (CMC) vehicle
From the text: as §1

[5] = Mechanical stressing of Form A, XRPD read-out; assay type: physicochemical
Protocol: (§2) XRPD patterns were collected with an Inel XRG-3000 diffractometer. An incident beam of Cu Kα radiation was produced using a fine-focus tube and a parabolically graded multilayer mirror. Prior to the analysis, a silicon standard (NIST SRM 640c) was analyzed to verify the Si 111 peak position. A specimen of the sample was packed into a thin-walled glass capillary, and a beam-stop was used to minimize the background from air. Diffraction patterns were collected in transmission geometry using Windif v. 6.6 software and a curved position-sensitive Equinox detector with a 2θ range of 120°.
(§3) XRPD patterns were collected with a PANALYTICAL® X'Pert PRO MPD diffractometer using an incident beam of Cu radiation produced using an Optix long, fine-focus source. An elliptically graded multilayer mirror was used to focus Cu Kα X-rays through the specimen and onto the detector. Prior to the analysis, a silicon specimen (NIST SRM 640c) was analyzed to verify the Si 111 peak position. A specimen of the sample was sandwiched between 3 μm-thick films and analyzed in transmission geometry. A beam-stop and short antiscatter extension were used to minimize the background generated by air. Soller slits for the incident and diffracted beams were used to minimize broadening from axial divergence. Diffraction patterns were collected using a scanning position-sensitive detector (X'CELERATOR® located 240 mm from the specimen and Data Collector software v. 2.2b.
(§4) Form A crystal form of Compound 1 was subjected to (1) mechanical stressing experiments and (2) relative humidity stressing experiments, where the material was subjected to different levels of relative humidity (R.H.) and temperature.

[6] = Relative humidity stressing of Form A, XRPD read-out; assay type: physicochemical; conditions: 7 days
Protocol: as §2, §3, §4

crystal form conversion under humidity stressing ([1]; after 4, 7, and 14 days): The same mixture
SMILES: OB(O)c1ccc(-c2cccc(F)c2)cc1F [Material B, 3,3′-difluorobiphenyl-4-ylboronic acid]
crystal form conversion under humidity stressing ([1]; as early as 1 day): convert to a mixture of Material B and Form A

solubility [2]: > 100 mg/mL
solubility in water [3]: sparingly soluble
stability of the drug product suspended in CMC [4]: at least 48 hours
SMILES: OB(O)c1ccc(-c2cccc(F)c2)cc1F [Compound 1, 3,3′-difluorobiphenyl-4-ylboronic acid]

melting point: 238 to 241 °C
SMILES: Fc1cccc(-c2ccc(B3OB(c4ccc(-c5cccc(F)c5)cc4F)OB(c4ccc(-c5cccc(F)c5)cc4F)O3)c(F)c2)c1 [Compound 2, 2,4,6-tris(3,3′-difluorobiphenyl-4-yl)-1,3,5,2,4,6-trioxatriborinane]

XRPD Result after mechanical stressing ([5]; compress, 10,000 lb, 5 min., no solvent): Form A, low
XRPD Result after mechanical stressing ([5]; mill, 30 Hz, 20 min., ACN): Form A
XRPD Result after mechanical stressing ([5]; mill, 30 Hz, 20 min., MEK): Form A
XRPD Result after mechanical stressing ([5]; mill, 30 Hz, 20 min., THF): Form A
XRPD Result after mechanical stressing ([5]; mill, 30 Hz, 20 min., no solvent): Form A, low
stability to humidity stressing ([6]; 75% R.H., about 40° C.): stable
stability to humidity stressing ([6]; 75% R.H., room temperature): stable
XRPD Result after relative humidity stressing ([6]; 75% RH, 40° C.): Form A
XRPD Result after relative humidity stressing ([6]; 75% RH, RT): Form A
stability to humidity stressing ([6]; 97% R.H., room temperature): stable
XRPD Result after relative humidity stressing ([6]; 97% RH, RT): Form A
SMILES: OB(O)c1ccc(-c2cccc(F)c2)cc1F [Form A, 3,3′-difluorobiphenyl-4-ylboronic acid]
